Measurements: patent US20210186947A1, “TOMM6-INTERACTING EXTRACTS AND COMPOUNDS FOR USE IN THE TREATMENT AND PROPHYLAXIS OF NERVOUS SYSTEM DISEASES, ATHEROSCLEROSIS, HEPATITIS B INFECTION AND HUMAN PAPILLOMA VIRUS (HPV) INFECTION” (ETH ZURICH, priority 2018, published 2021)

Assays:
[1] = tested on: HBsAg (hepatitis B virus major surface antigen); assay: HBsAg aggregation in yeast, immunoblot detection of HBsAg; type: cell-based; details: alizarin 10 microg/ml and 1 microg/ml (FIG. 16D)
Excerpt: Recombinant HBsAg cDNA (synthesized by GeneScript, Piscataway, N.J., USA) was inserted into the expression vector p42K-TEF (D3011001-1 Dualsystems Biotech AG, Zurich). Yeast transformants were selected in the presence of G418 in the yeast growth medium (YPD; Bacto-yeast extract 10 g/L, Bacto-peptone 20 g/L and D-Glucose […]). Yeast (Saccharomyces cerevisae) strain INVSc1 was used (Invitrogen GmbH, Nr. C810-00). After 3-4 days of cultivation to allow for protein expression, yeast cells were harvested by centrifugation, followed by washing with ice-cold PBS. The yeast cell pellet was immediately frozen at −70° C. Proteins were extracted for 30 min. at 4° C. with solubilization buffer (1% sodium deoxycholate, 0.1% SDS, 0.1% NP40, 5 mM EDTA, 50 mM Tris, pH 8.0) supplemented with protease/phosphatase inhibitors (Cat. No. P8349, and/or PPC1010, Sigma-Aldrich, St. Louis, Mo., USA). […] Protein were separated by urea-containing SDS-PAGE (7.5-10%) under reducing conditions, transferred to PVDF membranes by electrophoretic protein transfer in a tank transfer cell (Mini Trans-Blot cell, Bio-Rad GmbH, Munchen, Germany), and transferred HBsAg proteins were detected in immunoblot with HBsAg-specific antibodies raised in rabbit against an N-terminal epitope of HBsAg, or by a monoclonal HBsAg antibody produced in mouse (SAB4700767, Sigma-Aldrich, St. Louis, Mo., USA). […]

Abeta plaques = assay: Abeta plaque load in Tg2576 mice, immunohistology with BAM-10 antibody; type: in vivo; details: 18-month-old Tg2576 mice treated for 6 months

SMILES: O=C1c2ccccc2C(=O)c2c1ccc(O)c2O [Compound-1, 1,2-dihydroxyanthraquinone]
- aggregation and assembly of HBsAg [1]: inhibited the aggregation and assembly of HBsAg
- Abeta plaque load in hippocampal and brain cortical areas (Abeta plaques): significantly inhibited the accumulation of Abeta plaques
